Reference: patent US20230380427A1 (priority 2020, published 2023)
Read-outs that look alike come from different tables or passages of the source. Marks after values point to notes of the source that are not given here.

Tests used:
[1] = system: F. graminearum; type: in vivo, Fusarium graminearum; settings: wheat Capo, Lennox, Trappe, Kronjet, ear treated, FHB assessed 21 days after anthesis, versus untreated control
[2] = system: F. graminearum; type: in vivo, Fusarium graminearum; settings: wheat Trappe, ear treated, versus untreated half of plot
[3] = system: F. graminearum; type: in vivo, Fusarium graminearum; settings: wheat Capo; versus control
[4] = system: Plasmopara viticola; experiment: Grapevine leaf disc assay (downy mildew, Peronospora); type: in vivo; settings: grapevine leaf discs, 5 days at 23° C.; diseased disk area versus control
Procedure: Exemplary tests for reduction of Peronospora symptoms were carried out on grapevine leaf discs as follows. Ten leaf discs were first inoculated with prototypes for 20 min and then treated with a spore suspension (20000 sporangia/ml) of the fungus until zoospores were released from the sporangia. Afterwards, leaf disks were placed on water agar plates and incubated for 5 days at 23° C. (16 h light/8 h darkness). Consequently, disease severity was calculated by measurement of the percentage of diseased disk area. Control treatments were included by either using water or by application of the copper-based, commercially available plant protection product Cuprozin.

Molecule: [Ca+2].[Cl-].[Cl-] [Prototype W2, Calcium chloride]
- Reduction of Symptoms (Disease incidence %) [1]: 29%

Molecule: Sodium silicium oxide [Prototype W4]
- Reduction of Symptoms (Disease incidence %) ([1]; listed as Silicium): no influence
- Reduction of Symptoms (Disease incidence %) ([1]; listed as W4): ns

Molecule: [Cl-].[Cl-].[Mg+2] [Prototype W3, Magnesium chloride]
- Reduction of Symptoms (Disease incidence %) ([1]; listed as W3): ns
- Reduction of Symptoms (Disease incidence %) ([1]; listed as magnesium): no influence

Molecule: O=C([O-])[O-].[Ca+2] [Prototype W25, Calcium carbonate from natural resources]
- Reduction of Symptoms (Disease incidence %) ([2]; listed as Calcium carbonate): 13%
- Reduction of Symptoms (Disease incidence %) ([2]; listed as W25): 13* %

Molecule: O=C([O-])[O-].[Ca+2] [Prototype W24, Calcium carbonate from natural resources]
- Reduction of Symptoms (%) Disease incidence % [3]: ns
- Reduction of Symptoms (%) Disease intensity % [3]: no significant effect and ns
- Reduction of Symptoms (%) Disease severity % [3]: ns

Molecule: [Ca+2].[Cl-].[Cl-] [Prototype G1, Calcium chloride]
- Reduction of Symptoms (Disease Severity %) [4]: 50.9** %
